IC50 data for 26 compounds are collected here from US11203613B2, “Peptidomimetic proteasome inhibitors” (CORNELL UNIVERSITY, priority 2017, dated 2021).

The target of this assay is Human Constitutive (Hu C-20S) β5 Active Subunit (Homo sapiens, UniProt P28074). Put plainly: IC50 determination, human constitutive 20S proteasome β5c (suc-LLVY-AMC hydrolysis). The conditions noted are these: Table 3; IC50 against human constitutive β5 active subunit; read-out: Hu-C20S β5. In kind it is biochemical.
With `C[C@H](NC(=O)[C@H](CC(=O)N1CCCC1)NC(=O)CCC(C)(C)C)c1ncc(-c2ccc(F)cc2F)[nH]1` [CEN-83, N—((S)-1-(((S)-1-(5-(2,4-Difluorophenyl)-1H-imidazol-2-yl)ethyl)amino)-1,4-dioxo-4-(pyrrolidin-1-yl)butan-2-yl)-4,4-dimethylpentanamide], the IC50 stood at 10.3 µM. Consider `CC(C)CCC(=O)N[C@@H](CC(=O)N1CCCCC1)C(=O)N[C@@H](C)c1ncc(-c2ccc(F)cc2F)[nH]1` [CEN-84, N—((S)-1-(((S)-1-(5-(2,4-Difluorophenyl)-1H-imidazol-2-yl)ethyl)amino)-1,4-dioxo-4-(piperidin-1-yl)butan-2-yl)-4-methylpentanamide], for which the IC50 was found to be 7.3 µM. The result for `CC(C)C(=O)CN[C@@H](CC(=O)N1CCCC[C@@H]1C)C(=O)N[C@@H](C)c1ncc(-c2ccc(F)cc2F)[nH]1` [CEN-85, (S)—N—((S)-1-(5-(2,4-Difluorophenyl)-1H-imidazol-2-yl)ethyl)-2-((3-methyl-2-oxobutyl)amino)-4-((S)-2-methylpiperidin-1-yl)-4-oxobutanamide] reads 9.9 µM.

In the case of `CCS(=O)(=O)N[C@@H](CC(=O)N1CCCC[C@@H]1C)C(=O)N[C@@H](C)c1ncc(-c2ccc(F)cc2F)[nH]1` [CEN-86, (S)—N—((S)-1-(5-(2,4-Difluorophenyl)-1H-imidazol-2-yl)ethyl)-2-(ethylsulfonamido)-4-((S)-2-methylpiperidin-1-yl)-4-oxobutanamide], the IC50 was 28.2 µM. Take `C[C@H](NC(=O)[C@H](CC(=O)N1CCCC[C@@H]1C)NC(=O)CCC1CC1)c1ncc(-c2ccc(F)cc2F)[nH]1` [CEN-87, (S)-2-(3-Cyclopropylpropanamido)-N—((S)-1-(5-(2,4-difluorophenyl)-1H-imidazol-2-yl)ethyl)-4-((S)-2-methylpiperidin-1-yl)-4-oxobutanamide]: the IC50 is 11.7 µM. Consider `CC(C)CCC(=O)N[C@@H](CC(=O)N1CCCC[C@@H]1C)C(=O)N[C@@H](C)c1ncc(-c2ccc(F)cc2F)[nH]1` [CEN-88, N—((S)-1-(((S)-1-(5-(2,4-Difluorophenyl)-1H-imidazol-2-yl)ethyl)amino)-4-((S)-2-methylpiperidin-1-yl)-1,4-dioxobutan-2-yl)-4-methylpentanamide], for which the IC50 was 15.1 µM. `C[C@H](NC(=O)[C@H](CC(=O)N1CCC[C@@H]1C)NC(=O)CCC(C)(C)C)c1ncc(-c2ccc(F)cc2F)[nH]1` [CEN-89, N—((S)-1-(((S)-1-(5-(2,4-Difluorophenyl)-1H-imidazol-2-yl)ethyl)amino)-4-((S)-2-methylpyrrolidin-1-yl)-1,4-dioxobutan-2-yl)-4,4-dimethylpentanamide]: the IC50 was determined as 5.7 µM. The result for `CC(C)CCC(=O)N[C@@H](CC(=O)N1CCCCCC1)C(=O)N[C@@H](C)c1ncc(-c2ccc(F)cc2F)[nH]1` [CEN-90, N—((S)-4-(Azepan-1-yl)-1-(((S)-1-(5-(2,4-difluorophenyl)-1H-imidazol-2-yl)ethyl)amino)-1,4-dioxobutan-2-yl)-4-methylpentanamide] reads 10.2 µM; that for `CC(C)CCC(=O)N[C@@H](CC(=O)N1CCCC[C@H]1C)C(=O)N[C@@H](C)c1ncc(-c2ccc(F)cc2F)[nH]1` [CEN-91, N—((S)-1-(((S)-1-(5-(2,4-Difluorophenyl)-1H-imidazol-2-yl)ethyl)amino)-4-((R)-2-methylpiperidin-1-yl)-1,4-dioxobutan-2-yl)-4-methylpentanamide], 10.5 µM; that for `CC(C)CCC(=O)N[C@@H](CC(=O)N1CCOC[C@@H]1C)C(=O)N[C@@H](C)c1ncc(-c2ccc(F)cc2F)[nH]1` [CEN-92, N—((S)-1-(((S)-1-(5-(2,4-Difluorophenyl)-1H-imidazol-2-yl)ethyl)amino)-4-((S)-3-methylmorpholino)-1,4-dioxobutan-2-yl)-4-methylpentanamide], 15.2 µM. Consider `C[C@H](NC(=O)[C@H](CC(=O)N1CCCC[C@@H]1C)NC(=O)c1cn(C)cn1)c1ncc(-c2ccc(F)cc2F)[nH]1` [CEN-93, N—((S)-1-(((S)-1-(5-(2,4-Difluorophenyl)-1H-imidazol-2-yl)ethyl)amino)-4-((S)-2-methylpiperidin-1-yl)-1,4-dioxobutan-2-yl)-1-methyl-1H-imidazole-4-carboxamide], for which the IC50 was 10.9 µM. Take `Cc1cc(C(=O)N[C@@H](CC(=O)N2CCCC[C@@H]2C)C(=O)N[C@@H](C)c2ncc(-c3ccc(F)cc3F)[nH]2)no1` [CEN-94, N—((S)-1-(((S)-1-(5-(2,4-Difluorophenyl)-1H-imidazol-2-yl)ethyl)amino)-4-((S)-2-methylpiperidin-1-yl)-1,4-dioxobutan-2-yl)-5-methylisoxazole-3-carboxamide]: the IC50 was 5.5 µM. As for `CC(C)c1noc(N[C@@H](CC(=O)N2CCCC[C@@H]2C)C(=O)N[C@@H](C)c2ncc(-c3ccc(F)cc3F)[nH]2)n1` [CEN-95, (S)—N—((S)-1-(5-(2,4-Difluorophenyl)-1H-imidazol-2-yl)ethyl)-2-((3-isopropyl-1,2,4-oxadiazol-5-yl)amino)-4-((S)-2-methylpiperidin-1-yl)-4-oxobutanamide], the IC50 worked out at 2.3 µM. Turning to `C[C@H](NC(=O)[C@H](CC(=O)N1CCCC[C@@H]1C)NC(=O)C1CC(C)(C)C1)c1ncc(-c2ccc(F)cc2F)[nH]1` [CEN-96, N—((S)-1-(((S)-1-(5-(2,4-difluorophenyl)-1H-imidazol-2-yl)ethyl)amino)-4-((S)-2-methylpiperidin-1-yl)-1,4-dioxobutan-2-yl)-3,3-dimethylcyclobutane-1-carboxamide], the IC50 worked out at 5.7 µM. As to `CC(C)C1CC1C(=O)N[C@@H](CC(=O)N1CCCC[C@@H]1C)C(=O)N[C@@H](C)c1ncc(-c2ccc(F)cc2F)[nH]1` (stereo partly drawn) [CEN-97, N—((S)-1-(((S)-1-(5-(2,4-Difluorophenyl)-1H-imidazol-2-yl)ethyl)amino)-4-((S)-2-methylpiperidin-1-yl)-1,4-dioxobutan-2-yl)-2-isopropylcyclopropane-1-carboxamide], the IC50 amounted to 4.8 µM. With `C[C@H](NC(=O)[C@H](CC(=O)N1CCCC[C@@H]1C)NC(=O)c1cncs1)c1ncc(-c2ccc(F)cc2F)[nH]1` [CEN-98, N—((S)-1-(((S)-1-(5-(2,4-Difluorophenyl)-1H-imidazol-2-yl)ethyl)amino)-4-((S)-2-methylpiperidin-1-yl)-1,4-dioxobutan-2-yl)thiazole-5-carboxamide], the IC50 turned out to be 7.1 µM. Take `C[C@H](NC(=O)[C@H](CC(=O)N1CCCC[C@@H]1C)NC(=O)CCC(C)(C)C)c1ncc(-c2ccc(F)cc2F)[nH]1` [CEN-99, N—((S)-1-(((S)-1-(5-(2,4-Difluorophenyl)-1H-imidazol-2-yl)ethyl)amino)-4-((S)-2-methylpiperidin-1-yl)-1,4-dioxobutan-2-yl)-4,4-dimethylpentanamide]: the IC50 amounted to 8.5 µM.

On to `CC[C@H]1CCCCN1C(=O)C[C@H](NC(=O)CCC(C)C)C(=O)N[C@@H](C)c1ncc(-c2ccc(F)cc2F)[nH]1` [CEN-100, N—((S)-1-(((S)-1-(5-(2,4-Difluorophenyl)-1H-imidazol-2-yl)ethyl)amino)-4-((S)-2-ethylpiperidin-1-yl)-1,4-dioxobutan-2-yl)-4-methylpentanamide], for which the IC50 was found to be 4.4 µM. With `C[C@H](NC(=O)N(CC(=O)N1CCCC[C@@H]1C)NC(=O)CCC(C)(C)C)c1ncc(-c2ccc(F)cc2F)[nH]1` [CEN-101, N—((S)-1-(5-(2,4-Difluorophenyl)-1H-imidazol-2-yl)ethyl)-2-(4,4-dimethylpentanoyl)-1-(2-((S)-2-methylpiperidin-1-yl)-2-oxoethyl)hydrazine-1-carboxamide], the IC50 was found to be 7.6 µM. `C[C@H](NC(=O)[C@H](CC(=O)N1CCCC[C@@H]1C)NC(=O)Cc1ccccc1)c1ncc(-c2ccc(F)cc2F)[nH]1` [CEN-102, (S)—N—((S)-1-(5-(2,4-Difluorophenyl)-1H-imidazol-2-yl)ethyl)-4-((S)-2-methylpiperidin-1-yl)-4-oxo-2-(2-phenylacetamido)butanamide]: the IC50 turned out to be 10.2 µM.

Take `C[C@H](NC(=O)[C@H](CC(=O)N1CCCC[C@@H]1C)NCC(=O)c1ccccc1)c1ncc(-c2ccc(F)cc2F)[nH]1` [CEN-103, (S)—N—((S)-1-(5-(2,4-Difluorophenyl)-1H-imidazol-2-yl)ethyl)-4-((S)-2-methylpiperidin-1-yl)-4-oxo-2-((2-oxo-2-phenylethyl)amino)butanamide]: the IC50 was found to be 15.2 µM.

As to `CC(C)CS(=O)(=O)N[C@@H](CC(=O)N1CCCC[C@@H]1C)C(=O)N[C@@H](C)c1ncc(-c2ccc(F)cc2F)[nH]1` [CEN-104, (S)—N—((S)-1-(5-(2,4-Difluorophenyl)-1H-imidazol-2-yl)ethyl)-4-((S)-2-methylpiperidin-1-yl)-2-((2-methylpropyl)sulfonamido)-4-oxobutanamide], the IC50 amounted to 4.9 µM.

Take `Cc1ncc(C(=O)N[C@@H](CC(=O)N2CCCC[C@@H]2C)C(=O)N[C@@H](C)c2ncc(-c3ccc(F)cc3F)[nH]2)s1` [CEN-105, N—((S)-1-(((S)-1-(5-(2,4-Difluorophenyl)-1H-imidazol-2-yl)ethyl)amino)-4-((S)-2-methylpiperidin-1-yl)-1,4-dioxobutan-2-yl)-2-methylthiazole-5-carboxamide]: the IC50 amounted to 3.9 µM. As for `C[C@H](NC(=O)[C@H](CC(=O)N1CCCC[C@@H]1C)NC(=O)CC1CCOCC1)c1ncc(-c2ccc(F)cc2F)[nH]1` [CEN-106, (S)—N—((S)-1-(5-(2,4-Difluorophenyl)-1H-imidazol-2-yl)ethyl)-4-((S)-2-methylpiperidin-1-yl)-4-oxo-2-(2-(tetrahydro-2H-pyran-4-yl)acetamido)butanamide], the figure is 12.8 µM. As for `CC(C)CCC(=O)N[C@@H](CC(=O)N1CCCCC1C(C)C)C(=O)N[C@@H](C)c1ncc(-c2ccc(F)cc2F)[nH]1` (stereo partly drawn) [CEN-107, N-((2S)-1-(((S)-1-(5-(2,4-Difluorophenyl)-1H-imidazol-2-yl)ethyl)amino)-4-(2-isopropylpiperidin-1-yl)-1,4-dioxobutan-2-yl)-4-methylpentanamide], the IC50 turned out to be 2.8 µM. As for `C[C@H](NC(=O)[C@H](CC(=O)N1CCCC[C@@H]1C)NS(=O)(=O)CCC1CC1)c1ncc(-c2ccc(F)cc2F)[nH]1` [CEN-108, (S)-2-((2-Cyclopropylethyl)sulfonamido)-N—((S)-1-(5-(2,4-difluorophenyl)-1H-imidazol-2-yl)ethyl)-4-((S)-2-methylpiperidin-1-yl)-4-oxobutanamide], the figure is 6.2 µM.
